Measured values: patent publication US20180200233A1, “COMPOSITIONS FOR PREVENTING CANCERS ASSOCIATED WITH HUMAN PAPILLOMA VIRUSES” (Loma Linda University, priority 2015, published 2018)

Experiments:
[1] = biological target: T1, GST-E6/His-E6AP (Human papillomavirus type 16, UniProt P03126); test: AlphaScreen bead-based assay, GST-E6/His-E6AP binding; parameters: species or system HPV 16
T1 construct: made in house
Method: (§1) FIGS. 2A-C are graphs providing data regarding inhibition of protein-protein interactions by 3-(1H-indol-1yl)propan-1-amine (1), three benzimidazole derivatives (2-4), and spinacine (5). Compounds, at the indicated concentrations (1.4 μM to 3.2 mM) were tested using a bead-based screening assay for their ability to inhibit three different protein/protein interactions: (FIG. 2A) GST-E6/His-caspase 8; (FIG. 2B) GST-E6/HisE6AP; and (FIG. 2C) GST-caspase 8/His-caspase 8. Binding in the presence of 1.4 μM of the test compound was set at 100%. Experiments were performed in triplicate, and error bars indicate the standard deviation.
To determine the dose-responsiveness of these five compounds, variable concentrations of those small molecules were first tested for their ability to inhibit E6/caspase binding. […] These molecules, which had been selected for their ability to interfere with E6/caspase 8 binding, were then tested to determine if they could also affect other interactions of E6, such as its binding to E6-associated protein (E6AP). The E6/E6AP interaction is required for the E6-mediated acceleration of p53 degradation (Huibregtse, J. M., M. Scheffner, and P. M. Howley, A cellular protein mediates association of p53 with the E6 oncoprotein of human papillomavirus types 16 or 18. The EMBO journal, 1991. 10(13): p. 4129-35).
(§2) Alpha-Screen™ technology was used to assess the interactions between GST-E6, GST-caspase 8, His-E6AP, and His-caspase 8. Binding assays were performed in white 384-well plates (Perkin-Elmer) in a total volume of 25 μl as previously described (Tungteakkhun, S. S., et al., The interaction between human papillomavirus type 16 and FADD is mediated by a novel E6 binding domain. Journal of virology, 2008. 82(19): p. 9600-14). Briefly, 5 μl (50 ng) of GST-E6 and 5 μl (87.5 ng) of His-caspase 8 were included in each reaction mixture with 5 μl blocking buffer (0.5 mg BSA, 0.5% Tween 20 in PBS) in the absence or presence of 10 μM of each test chemical. Members of the library were present at […] in DMSO. After a one-hour incubation of the mixture at room temperature, 5 μl donor beads and 5 μl acceptor beads (Perkin-Elmer) were added to each well according to the manufacturer's protocol. The mixture was incubated in the dark at room temperature overnight, and the emitted signal was detected using the Envision Multilabel plate reader (Perkin-Elmer). In the presence of test chemicals, the binding affinity was calculated as a percentage of the binding in the presence of carrier only (DMSO).

[2] = biological target: T2, GST-caspase 8/His-caspase 8 (Homo sapiens, UniProt Q14790); test: AlphaScreen counter-screen, GST-caspase 8/His-caspase 8 binding; conditions: for EC50 for GST-caspase 8/His-caspase 8 interaction: compounds tested 1.4 μM to 3.2 mM
T2 construct: pTriEx-Caspase-8 DED plasmids; fused on or other part: GST tag on one copy, His tag on the other (AlphaScreen bead handles)
Method: as §1
To ask whether this inhibition was specific, a counter-screening assay was employed the ability of candidates to inhibit the binding of GST-caspase 8 to His-caspase 8 was assessed; those that did were to be eliminated. In this counter-screening assay, the materials in each well were the same as in the primary screen, with the exception that GST-caspase 8 replaced GST-E6.
as §2

[3] = system: SiHa cells; test: MTT cell viability, SiHa cells with doxorubicin or cisplatin; format: cell-based, human; conditions: 100 μM myricetin, 50 μM spinacine added 4 h prior; compared to negative control
Method: FIGS. 3A-E are graphs providing data regarding resistance of HPV^+ SiHa cells to TRAIL-, cisplatin- and […] apoptosis, in the presence and absence of small molecules as disclosed herein. (FIG. 3A) HPV^+ SiHa cells are resistant to TRAIL-induced apoptosis as compared to the human osteosarcoma cell line U2OS. Cells (2×10^4 cells per well) were seeded into a 96-well plate, allowed to incubate overnight, and then treated with indicated concentration of TRAIL in the presence of cycloheximide (5 μg/ml). The viability of cells was measured after overnight incubation using the MTT assay; the viability of cells untreated with TRAIL was set at 100% for each group. (FIG. 3B) The indicated concentrations of three small molecules were added to SiHa cells, and an MTT assay was preformed after overnight incubation. The viability of cells untreated with small molecules was set as 100%. […] Cell viability was measured after overnight incubation using the MTT assay, and the viability of cells untreated with either myricetin or spinacine was set at 100%. […]
The extracellular domain of human TRAIL was cloned into a pTriEx expression plasmid containing N-terminal Hisx6 tag. […] All experiments were repeated at least three times (three biological replicates, carried out on different days), with each experimental group measured in triplicate within each of these individual experiments. […]

T2 sequence (Q14790 whole entry, the tested form may be a part): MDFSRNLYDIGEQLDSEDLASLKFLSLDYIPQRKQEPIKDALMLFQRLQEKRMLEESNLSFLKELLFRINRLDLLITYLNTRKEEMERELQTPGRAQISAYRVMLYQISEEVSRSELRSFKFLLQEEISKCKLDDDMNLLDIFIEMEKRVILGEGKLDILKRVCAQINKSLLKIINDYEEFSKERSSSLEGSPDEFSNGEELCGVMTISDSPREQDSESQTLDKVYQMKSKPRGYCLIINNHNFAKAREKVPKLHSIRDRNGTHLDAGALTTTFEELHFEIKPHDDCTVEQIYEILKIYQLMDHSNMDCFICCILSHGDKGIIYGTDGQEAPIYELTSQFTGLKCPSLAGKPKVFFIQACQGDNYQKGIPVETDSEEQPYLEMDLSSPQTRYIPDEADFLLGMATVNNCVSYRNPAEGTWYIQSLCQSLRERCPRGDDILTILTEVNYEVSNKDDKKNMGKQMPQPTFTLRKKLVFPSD
T1 sequence (P03126 whole entry): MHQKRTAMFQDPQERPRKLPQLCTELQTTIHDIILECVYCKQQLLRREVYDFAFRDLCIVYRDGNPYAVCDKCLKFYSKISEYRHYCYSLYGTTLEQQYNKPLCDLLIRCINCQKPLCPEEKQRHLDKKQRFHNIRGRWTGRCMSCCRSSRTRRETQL

Row | SMILES | EC50 for GST-E6/His-E6AP interaction ([1]; bead-based assay, compounds tested 1.4 μM to 3.2 mM) | EC50 for GST-caspase 8/His-caspase 8 interaction [2] | sensitivity of SiHa cells to doxorubicin and cisplatin (in words) [3] | inhibition of E6/E6AP interaction (in words) ([1]; FIG. 2B) | inhibition of caspase 8/caspase 8 interaction (in words) ([2]; FIG. 2C)
1 | OCn1cnc2ccccc21 [Compound 3, 1H-benzimidazole-1-methanol] | No Inhibition | No Inhibition |  |  | 
2 | O=C(O)C1Cc2[nH]cnc2CN1 (stereo not shown) [Compound 5, 4,5,6,7-Tetrahydro-1H-imidazo(4,5-c)pyridine-6-carboxylic acid] |  | No | increased the sensitivity | could also inhibit the E6/E6AP interaction | did not significantly inhibit
3 | O=c1c(O)c(-c2cc(O)c(O)c(O)c2)oc2cc(O)cc(O)c12 [Myricetin, reference compound] |  |  | increased the sensitivity |  | 
